Measured values taken from US20220071939A1, “COMPOUNDS AND METHODS FOR THE TREATMENT OF POLYCYSTIC KIDNEY DISEASE (PKD)” (Resilio Therapeutics, LLC, priority 2018, published 2022).
“Also recorded” adds a separate entry of the source.

Key:
[1] = system: normal human kidney (NHK) cells in 3D cultures; experiment: 3D tubulogenesis assay; assay type: cell-based; conditions: 10 mM DFMO
Method: As a further proof of the potential utility of DFMO/DFMO-prodrugs in ADPKD patients, we also performed a tubulogenesis assay with normal human kidney cells in 3D cultures. Vehicle treated normal human kidney (NHK) cells form tubules by Day 3 in 3D cultures (FIG. 5) as do 10 mM DFMO-treated NHK cells, which also form tubules under the same conditions (FIG. 6).

[2] = system: cysts formed from ADPKD donor cells in 3D cultures; experiment: 3D cyst formation assay (cyst number and cyst size by light microscopy); assay type: cell-based, human; conditions: 3D culture
Method: (§1) Studies were performed on DFMO, the metabolic product of DFMO-prodrugs, in primary cell cultures of 2 dimensional (2D) cellular toxicity assays, 3 dimensional (3D) cyst formation assays and 3D tubulogenesis assays. DFMO was less than 10% toxic (90% viable) to human renal mixed epithelial cells in 2D cultures from Autosomal Dominant Polycystic Kidney Disease (ADPKD) donors up to 10 mM DFMO concentration as measured using a Cell Titer Go kit (FIG. 1). In the 3D cyst cultures, a population of mixed cells from a surgically resected cyst from a donor ADPKD kidney is combined with human kidney fibroblasts to grow cysts in a proprietary media (Discovery BioMed, Inc) that contains conditioned media from kidney fibroblasts and a Biogel matrix (DiscoveryBioMed). Using light microscopy to count cysts, the number of cysts formed in 3D cultures decreased in a dose-dependent fashion to 50% of controls at 10 mM DFMO (FIG. 2). Photomicrographs of cysts formed from ADPKD donor cells in 3D cultures show a time dependent change in cyst size.

[3] = system: human renal mixed epithelial cells in 2D cultures from Autosomal Dominant Polycystic Kidney Disease (ADPKD) donors; experiment: 2D cellular toxicity assay (viability by ATP release, Cell TiterGlo kit); assay type: cell-based
Method: as §1, with “FIG. 1 is a plot of cell viability as a function of difluoromethyl omithine (DFMO) concentration, showing the viability of primary ADPKD cells in 2D culture as measured by ATP release using Cell TiterGlo kit. Studies” for “Studies”, “2).” for “2). Photomicrographs of cysts formed from ADPKD donor cells in 3D cultures show a time dependent change in cyst size.”

[4] = 2D culture, up to 10 mM DFMO, Cell Titer Glo (ATP release), FIG. 1

tubule formation ([1]; Day 3, FIG. 6): form tubules
tubule numbers, maturation and elongation versus vehicle ([1]; visual comparison over time): appear similar
Substance: difluoromethylornithine [DFMO]
cyst size over time ([2]; 10 mM DFMO, Day 0 to Day 4, FIG. 4): decreases with time; also recorded: slight increase on Day 1 followed by a steady decrease in cyst size by Day 4 when the cyst is smaller than on Day 0
number of cysts formed, relative to controls ([2]; 10 mM DFMO, FIG. 2): 50 % of controls
number of cysts versus DFMO concentration ([2]; FIG. 2): decrease in a dose-dependent manner
cell viability [3, 4]: 90%
toxicity to ADPKD cells [3, 4]: less than 10%
cell killing in 2D cultures ([3]; ADPKD cells, 2D cultures): not killed
